Assay results published in the supplement of paper PMC10307832.

Legend:
Assay in all cases: relative viability (nuclei count vs DMSO), 5 days (fraction); higher = more cells survive
NCI-H2405 = test system: NCI-H2405
Summary of the method: (§1)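 After 5 days of treatment, lung cancer cells in 1536-well plates were fixed and stained in a single step (final 0.05% Triton X-100, 1% formaldehyde, 1 ug/ml Hoechst) and their nuclei counted on 4× images. Treatment had been applied by pin tool the day after seeding as one drug alone or as a fixed anchor-drug dose with five library-drug doses (not always all listed) in √10 steps. Relative viability is the nuclei count of treated wells divided by that of vehicle wells, and values are medians of duplicate plates.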

NCI-H322M = test system: NCI-H322M
Summary of the method: as §1

LXF-289 = test system: LXF-289
Summary of the method: as §1

NCI-H2085 = test system: NCI-H2085
Summary of the method: as §1

SK-LU-1 = test system: SK-LU-1
Summary of the method: as §1

LOU-NH91 = test system: LOU-NH91
Summary of the method: as §1

HCC-827 = test system: HCC-827
Summary of the method: as §1

EPLC-272H = test system: EPLC-272H
Summary of the method: as §1

NCI-H1975 = test system: NCI-H1975
Summary of the method: as §1

NCI-H1666 = test system: NCI-H1666
Summary of the method: as §1

SW 900 = test system: SW 900
Summary of the method: as §1

NCI-H2126 = test system: NCI-H2126
Summary of the method: as §1

LCLC-103H = test system: LCLC-103H
Summary of the method: as §1

SW 1573 = test system: SW 1573
Summary of the method: as §1

HCC-78 = test system: HCC-78
Summary of the method: as §1

EMC-BAC-2 = test system: EMC-BAC-2
Summary of the method: as §1

LU99A = test system: LU99A
Summary of the method: as §1

NCI-H1563 = test system: NCI-H1563
Summary of the method: as §1

LK-2 = test system: LK-2
Summary of the method: as §1

ChaGo-K-1 = test system: ChaGo-K-1
Summary of the method: as §1

NCI-H23 = test system: NCI-H23
Summary of the method: as §1

NCI-H3122 = test system: NCI-H3122
Summary of the method: as §1

RERF-LC-KJ = test system: RERF-LC-KJ
Summary of the method: as §1

CC1(C)CCC(c2ccc(Cl)cc2)=C(CN2CCN(c3ccc(C(=O)NS(=O)(=O)c4ccc(N[C@H](CCN5CCOCC5)CSc5ccccc5)c(S(=O)(=O)C(F)(F)F)c4)cc3)CC2)C1 [Navitoclax] + COc1cccc2cc(-c3nc([C@H]4CC[C@H](C(=O)O)CC4)n4ncnc(N)c34)[nH]c12 [OSI-027] (partner 0.5 µM)
relative viability (NCI-H2405; first compound 0.005 µM): 0.664 | relative viability (NCI-H2405; first compound 0.01581 µM): 0.682 | relative viability (NCI-H2405; first compound 0.05 µM): 0.644 | relative viability (NCI-H2405; first compound 0.1581 µM): 0.632 | relative viability (NCI-H2405; first compound 0.5 µM): 0.558 | relative viability (NCI-H322M; first compound 0.005 µM): 0.536 | relative viability (NCI-H322M; first compound 0.01581 µM): 0.696 | relative viability (NCI-H322M; first compound 0.05 µM): 0.552 | relative viability (NCI-H322M; first compound 0.1581 µM): 0.545 | relative viability (NCI-H322M; first compound 0.5 µM): 0.706 | relative viability (LXF-289; first compound 0.005 µM): 0.77 | relative viability (LXF-289; first compound 0.01581 µM): 0.867 | relative viability (LXF-289; first compound 0.05 µM): 0.731 | relative viability (LXF-289; first compound 0.1581 µM): 0.753 | relative viability (LXF-289; first compound 0.5 µM): 0.795 | relative viability (NCI-H2085; first compound 0.005 µM): 0.664 | relative viability (NCI-H2085; first compound 0.01581 µM): 0.871 | relative viability (NCI-H2085; first compound 0.05 µM): 0.544 | relative viability (NCI-H2085; first compound 0.1581 µM): 0.846 | relative viability (NCI-H2085; first compound 0.5 µM): 0.757 | relative viability (SK-LU-1; first compound 0.005 µM): 0.374 | relative viability (SK-LU-1; first compound 0.01581 µM): 0.429 | relative viability (SK-LU-1; first compound 0.05 µM): 0.347 | relative viability (SK-LU-1; first compound 0.1581 µM): 0.374 | relative viability (SK-LU-1; first compound 0.5 µM): 0.319 | relative viability (LOU-NH91; first compound 0.005 µM): 0.775 | relative viability (LOU-NH91; first compound 0.01581 µM): 0.76 | relative viability (LOU-NH91; first compound 0.05 µM): 0.699 | relative viability (LOU-NH91; first compound 0.1581 µM): 0.755 | relative viability (LOU-NH91; first compound 0.5 µM): 0.661 | relative viability (HCC-827; first compound 0.005 µM): 0.767 | relative viability (HCC-827; first compound 0.01581 µM): 0.951 | relative viability (HCC-827; first compound 0.05 µM): 0.74 | relative viability (HCC-827; first compound 0.1581 µM): 0.761 | relative viability (HCC-827; first compound 0.5 µM): 0.812 | relative viability (EPLC-272H; first compound 0.005 µM): 0.296 | relative viability (EPLC-272H; first compound 0.05 µM): 0.323 | relative viability (EPLC-272H; first compound 0.1581 µM): 0.317 | relative viability (EPLC-272H; first compound 0.5 µM): 0.3 | relative viability (NCI-H1975; first compound 0.005 µM): 0.764 | relative viability (NCI-H1975; first compound 0.01581 µM): 0.83 | relative viability (NCI-H1975; first compound 0.05 µM): 0.823 | relative viability (NCI-H1975; first compound 0.1581 µM): 0.688 | relative viability (NCI-H1975; first compound 0.5 µM): 0.677 | relative viability (NCI-H1666; first compound 0.005 µM): 0.823 | relative viability (NCI-H1666; first compound 0.01581 µM): 0.815 | relative viability (NCI-H1666; first compound 0.05 µM): 0.859 | relative viability (NCI-H1666; first compound 0.1581 µM): 0.758 | relative viability (NCI-H1666; first compound 0.5 µM): 0.839 | relative viability (SW 900; first compound 0.005 µM): 0.497 | relative viability (SW 900; first compound 0.01581 µM): 0.681 | relative viability (SW 900; first compound 0.05 µM): 0.534 | relative viability (SW 900; first compound 0.1581 µM): 0.395 | relative viability (SW 900; first compound 0.5 µM): 0.546 | relative viability (NCI-H2126; first compound 0.005 µM): 0.764 | relative viability (NCI-H2126; first compound 0.01581 µM): 0.849 | relative viability (NCI-H2126; first compound 0.1581 µM): 0.72 | relative viability (NCI-H2126; first compound 0.5 µM): 0.716 | relative viability (LCLC-103H; first compound 0.005 µM): 0.462 | relative viability (LCLC-103H; first compound 0.01581 µM): 0.449 | relative viability (LCLC-103H; first compound 0.05 µM): 0.399 | relative viability (LCLC-103H; first compound 0.1581 µM): 0.479 | relative viability (LCLC-103H; first compound 0.5 µM): 0.533 | relative viability (SW 1573; first compound 0.005 µM): 0.762 | relative viability (SW 1573; first compound 0.01581 µM): 0.782 | relative viability (SW 1573; first compound 0.05 µM): 0.638 | relative viability (SW 1573; first compound 0.1581 µM): 0.562 | relative viability (SW 1573; first compound 0.5 µM): 0.576 | relative viability (HCC-78; first compound 0.005 µM): 0.399 | relative viability (HCC-78; first compound 0.01581 µM): 0.343 | relative viability (HCC-78; first compound 0.1581 µM): 0.349 | relative viability (HCC-78; first compound 0.5 µM): 0.384 | relative viability (EMC-BAC-2; first compound 0.005 µM): 0.392 | relative viability (EMC-BAC-2; first compound 0.01581 µM): 0.362 | relative viability (EMC-BAC-2; first compound 0.05 µM): 0.382 | relative viability (EMC-BAC-2; first compound 0.1581 µM): 0.351 | relative viability (EMC-BAC-2; first compound 0.5 µM): 0.372 | relative viability (LU99A; first compound 0.005 µM): 0.305 | relative viability (LU99A; first compound 0.01581 µM): 0.345 | relative viability (LU99A; first compound 0.05 µM): 0.248 | relative viability (LU99A; first compound 0.1581 µM): 0.26 | relative viability (LU99A; first compound 0.5 µM): 0.312 | relative viability (NCI-H1563; first compound 0.005 µM): 0.737 | relative viability (NCI-H1563; first compound 0.01581 µM): 0.809 | relative viability (NCI-H1563; first compound 0.05 µM): 0.756 | relative viability (NCI-H1563; first compound 0.1581 µM): 0.824 | relative viability (NCI-H1563; first compound 0.5 µM): 0.812 | relative viability (LK-2; first compound 0.005 µM): 0.204 | relative viability (LK-2; first compound 0.01581 µM): 0.256 | relative viability (LK-2; first compound 0.05 µM): 0.182 | relative viability (LK-2; first compound 0.1581 µM): 0.174 | relative viability (LK-2; first compound 0.5 µM): 0.193 | relative viability (ChaGo-K-1; first compound 0.005 µM): 0.548 | relative viability (ChaGo-K-1; first compound 0.01581 µM): 0.536 | relative viability (ChaGo-K-1; first compound 0.05 µM): 0.541 | relative viability (ChaGo-K-1; first compound 0.1581 µM): 0.55 | relative viability (ChaGo-K-1; first compound 0.5 µM): 0.6 | relative viability (NCI-H23; first compound 0.005 µM): 0.704 | relative viability (NCI-H23; first compound 0.01581 µM): 0.691 | relative viability (NCI-H23; first compound 0.05 µM): 0.529 | relative viability (NCI-H23; first compound 0.1581 µM): 0.582 | relative viability (NCI-H23; first compound 0.5 µM): 0.63 | relative viability (NCI-H3122; first compound 0.005 µM): 0.98 | relative viability (NCI-H3122; first compound 0.01581 µM): 0.949 | relative viability (NCI-H3122; first compound 0.05 µM): 1.04 | relative viability (NCI-H3122; first compound 0.1581 µM): 0.902 | relative viability (NCI-H3122; first compound 0.5 µM): 0.978 | relative viability (RERF-LC-KJ; first compound 0.005 µM): 0.568 | relative viability (RERF-LC-KJ; first compound 0.01581 µM): 0.633 | relative viability (RERF-LC-KJ; first compound 0.05 µM): 0.498 | relative viability (RERF-LC-KJ; first compound 0.1581 µM): 0.599 | relative viability (RERF-LC-KJ; first compound 0.5 µM): 0.616
